The term ED50 denotes the dose that gives a 50% effect, or the effect in half of the subjects.

“Also recorded” adds a separate entry of the source. Read-outs that look alike come from different tables or passages of the source.

Assay [1] deals with Prothrombin time (blood clotting). Nature of the assay: Prothrombin time ED50 (3 days after intraperitoneal injection). The assay is classed as in vivo, rat (male Wistar strain). Conditions: for ED50: Rattus norvegicus, S100, ip, 72 h, read-out: 3-day ED50 (Prothrombin time ED50); for anticoagulant activity (comparison in words): compared with Brodifacoum or Difenacoum. As for the experimental part: Compounds in accordance with the invention, and other substituted 4-hydroxy coumarin compounds not within the invention, including Brodifacoum, Difenacoum and Warfarin, were tested as described in the following examples. The Prothrombin time ED50 value is the most reliable method for measuring anticoagulant activity. The LD50 value is of significance in regard to the potency of the compound as a rodenticide.
A preliminary test was carried out to reliably rank the potential rodenticides in order of anticogulant potency.
The method used involved measurement of the Prothrombin time (a measure of blood clotting properties) which is based on that described in a paper by Quick, A. J., Stanley-Brown, M. and Bankoft. F. W. entitled "Study of Coagulation Defect in Haemophilia and in Jaundice" in American Journal of Medical Science, Vol. 190, pages 501-511, 1935. The compounds were dissolved in a 1:9 v/v mixture of triethanolamine and polyethylene glycol 200 Mol Wt and serially diluted to give appropriate doses in 1 ml per 1 kg of animal body weight. The doses were injected into the test animals by the interperitoneal route. Three days after injection, blood was withdrawn by cardiac puncture whilst the test animals (200-250 g Wistar strain male rats) were held under "Halothane" anaesthesia.
Three rats were used in each test of a given compound, and three prothrombin time determinations were carried out on each blood sample. Prothrombin times were determined using the modified one-stage method of Quick. The percentage extension time of each prothrombin time was determined by assigning 0% extension time to an arbitary prothrombin resting time of 12 seconds, and 100% extension time to a prothrombin time elevated to an arbitrary 212 seconds. Results were plotted on log-probability graph paper, the best-line fitted, and the prothrombin the ED50 read from the graph.

The test system of assay [2] is vitamin K reductase. Conditions: literature: Fasco et al 1982; Park et al 1982; cited from earlier work.
In assay [3] the test system is vitamin K 2, 3-epoxide reductase. Conditions: literature: Fasco et al 1982; Park et al 1982; cited from earlier work.
Assay [4] deals with female rats Homozygous--Resistant Welsh strain. The experiment in a line: 24h no-choice bait feeding test, resistant rats, deaths up to 21 days. The assay is classed as in vivo, rat (female. Conditions: 24h no-choice feed. As for the experimental part: (§1) Appropriate amounts of Compounds 1,2,3 and 5 were dissolved in acetone and slurried onto rolled oats to give final bait concentrations of 20 ppm for Compounds 1 and 2; and 50 ppm for Compounds 3 and 5. Each bait was offered as a 24h no-choice feed to groups of five individually caged female rats Homozygous--Resistant Welsh strain; and similarly to groups of five individually caged male and female mice (Cambridge Cream Resistant strain).

In assay [5] the test system is male and female mice (Cambridge Cream Resistant strain). Nature of the assay: 24h no-choice bait feeding test, resistant mice, deaths up to 21 days. The assay is classed as in vivo, mouse (Cambridge Cream Resistant strain). Conditions: 24h no-choice feed. Here is the method: as §1
Assay [6] relates to male rats, Wistar strain. Nature of the assay: 5 day no-choice bait feeding test, deaths up to 21 days. The assay is classed as in vivo, rat (male. Conditions: 5 day no-choice feed. As for the experimental part:
Appropriate amounts of Compounds 1, and 3 and 5 were dissolved in acetone, serially diluted, and slurried onto rolled oats to give final bait concentrations of 5.0, 2.0, 0.5 and 0.2 ppm for Compound 1 and 20.0, 10.0, […] and 2.0 ppm for Compounds 3 and 5. Each bait was offered as a 5 day no-choice feed to groups of five individually caged male rats, Wistar strain.

For assay [7], the system named is Warfarin-resistant rodents. Conditions: prior art; cited from earlier work.
Setting [8] is: male Wistar rats 200-250 g, single intraperitoneal injection, blood taken three days after injection, ED50 = 50% extension of prothrombin time (0% = 12 s, 100% = 212 s).

For the compound `O=c1oc2ccccc2c(O)c1C1CC(CCCc2ccccc2)Cc2ccccc21` (stereo not drawn) [Compound 29, reference compound], the ED50 in assay [1] (setting [8]) was 14.1 mg/kg.
As for `O=c1oc2ccccc2c(O)c1C1CC(c2ccc(OCc3ccc(Cl)c(Cl)c3)cc2)Cc2ccccc21` (stereo not drawn) [Compound 16], the ED50 in assay [1] (setting [8]) was found to be 0.43 mg/kg.
Regarding `O=c1oc2ccccc2c(O)c1C1CC(c2c(Cl)cccc2Cl)Cc2ccccc21` (stereo not drawn) [Compound 26, reference compound], the ED50 in assay [1] (setting [8]) was 10 mg/kg.
For `O=c1oc2ccccc2c(O)c1C1CC(c2ccc(OCc3ccc(C(F)(F)F)cc3)cc2)Cc2ccccc21` (stereo not drawn) [Compound 13], the ED50 in assay [1] (setting [8]) was 0.32 mg/kg.
Regarding `N#Cc1ccc(CCc2ccc(C3Cc4ccccc4C(c4c(O)c5ccccc5oc4=O)C3)cc2)cc1` (stereo not drawn) [Compound 19], the ED50 in assay [1] (setting [8]) worked out at 0.9 mg/kg.
For the compound `O=c1oc2ccccc2c(O)c1C1CC(c2ccc(CCCc3ccc(Cl)cc3)cc2)Cc2ccccc21` (stereo not drawn) [Compound 23], the ED50 in assay [1] (setting [8]) stood at 0.23 mg/kg. In addition, in assay [1], the “anticoagulant activity (comparison in words)” value (from here on “anticoagulant activity”) is on record as “activity greater than Brodifacoum”.
Take `O=c1oc2ccccc2c(O)c1C1CC(c2ccc(OCc3ccc(F)cc3)cc2)Cc2ccccc21` (stereo not drawn) [Compound 15]: the ED50 in assay [1] (setting [8]) came to 0.47 mg/kg.
Same read-out and setting: with `N#Cc1ccc(COc2ccc(C3Cc4ccccc4C(c4c(O)c5ccccc5oc4=O)C3)cc2)cc1` (stereo not drawn) [Compound 12] the figure was 0.8 mg/kg.
Regarding `N#Cc1ccc(C2Cc3ccccc3C(c3c(O)c4ccccc4oc3=O)C2)cc1` (stereo not drawn) [Compound 7], in assay [1] (setting [8]), the ED50 amounted to 0.54 mg/kg.
For the compound `CC(=O)CC(c1ccccc1)c1c(O)c2ccccc2oc1=O` (stereo not drawn) [Warfarin], in assay [2], the “inhibiting ability, vitamin K reductase” value was “have this inhibiting ability”. Moreover, in assay [3], the “inhibiting ability, vitamin K 2,3-epoxide reductase” value was “have this inhibiting ability”. Besides, the ED50 in assay [1] (setting [8]) turned out to be 5.2 mg/kg.
Take `N#Cc1ccc(-c2ccc([C@@H]3Cc4ccccc4[C@H](c4c(O)c5ccccc5oc4=O)C3)cc2)cc1` (relative stereo) [Compound 2]: the “Death up to 21 days, rats” value in assay [4] (bait 20.0 ppm) is 5/5. In assay [5] (bait 20.0 ppm), the “Death up to 21 days, mice” value was 4/5. Besides, the ED50 in assay [1] (setting [8]) is 0.31 mg/kg.
In the case of `O=c1oc2ccccc2c(O)c1C1CC(c2ccc(C(F)(F)F)cc2)Cc2ccccc21` (stereo not drawn) [Compound 3], the “Death up to 21 days, rats” value in assay [4] (bait 50.0 ppm) is reported as 5/5. Also, the “Deaths up to 21 days” value in assay [6] (bait 2.0 ppm), in assay [6] (bait 5.0 ppm), in assay [6] (bait 10.0 ppm) and in assay [6] (bait 20.0 ppm) was 5/5 in each case. In addition, the “Death up to 21 days, mice” value in assay [5] (bait 50.0 ppm) was 3/5. The ED50 in assay [1] (setting [8]) worked out at 0.59 mg/kg.
Consider `O=c1oc2ccccc2c(O)c1C1CC(c2ccc3c(c2)CCCC3)Cc2ccccc21` (stereo not drawn) [Compound 28, reference compound], for which the ED50 in assay [1] (setting [8]) was found to be 10 mg/kg.
The same measure, in the same setting: with `O=c1oc2ccccc2c(O)c1C1CC(c2ccc([N+](=O)[O-])cc2)Cc2ccccc21` (stereo not drawn) [Compound 9] the figure was 0.8 mg/kg.
As for `O=c1oc2ccccc2c(O)c1[C@@H]1C[C@@H](c2ccc(OCc3ccccc3)cc2)Cc2ccccc21` (relative stereo) [Compound 14, reference compound], the ED50 in assay [1] (setting [8]) is 4.3 mg/kg. In addition, in assay [1], the “anticoagulant activity” value is reported as “activity much lower than similarly structured Difenacourm”.
As to `O=c1oc2ccccc2c(O)c1C1CC(c2ccc(/C=C/c3ccc(Br)cc3)cc2)Cc2ccccc21` (stereo not drawn) [Compound 21], the ED50 in assay [1] (setting [8]) is 0.8 mg/kg.
As for `O=c1oc2ccccc2c(O)c1C1CC(c2ccc(/C=C/c3ccccc3)cc2)Cc2ccccc21` (stereo not drawn) [Compound 22], the ED50 in assay [1] (setting [8]) came out at 0.8 mg/kg.
As to `O=c1oc2ccccc2c(O)c1[C@@H]1C[C@@H](c2ccc(-c3ccc(C(F)(F)F)cc3)cc2)Cc2ccccc21` (relative stereo) [Compound 24, 3[3-(4'-trifluoromethyl-4-yl)-1,2,3,4-tetrahydro-1-naphthyl]-4hydroxycoumarin], the ED50 in assay [1] (setting [8]) turned out to be 0.47 mg/kg.
On the same count and under the same terms, as for `O=c1oc2ccccc2c(O)c1C1CC(c2ccc(CCc3ccc(Br)cc3)cc2)Cc2ccccc21` (stereo not drawn) [Compound 17], the figure is 0.37 mg/kg.
Turning to `O=c1oc2ccccc2c(O)c1C1CC(c2ccc(OCc3ccc(Br)cc3)cc2)Cc2ccccc21` (stereo not drawn) [Compound 11], the ED50 in assay [1] (setting [8]) came to 0.27 mg/kg. In assay [1], the “anticoagulant activity” value is given as “activity greater than Brodifacoum”.
Consider `O=c1oc2ccccc2c(O)c1C1CC(c2ccc(-c3ccccc3)cc2)Cc2ccccc21` (stereo not drawn) [Difenacoum], for which the “effectiveness against Warfarin-resistant rodents” value in assay [7] is “effective against Warfarin-resistant rodents”. In addition, the “inhibiting ability, vitamin K reductase” value in assay [2] was “have this inhibiting ability”. Further, the “inhibiting ability, vitamin K 2,3-epoxide reductase” value in assay [3] was “have this inhibiting ability”. Moreover, in assay [1], the ED50 turned out to be 0.56 mg/kg. Further, the “activity relative to Brodifacoum” value in assay [1] (rat, in vivo) is “about 36%”.
`N#Cc1ccc(-c2ccc([C@H]3Cc4ccccc4[C@H](c4c(O)c5ccccc5oc4=O)C3)cc2)cc1` (relative stereo) [Compound 1]: the “Death up to 21 days, rats” value in assay [4] (bait 20.0 ppm) was 5/5. Also, the “Deaths up to 21 days” value in assay [6] (bait 0.2 ppm) is 0/5; in assay [6] (bait 0.5 ppm), 5/5; in assay [6] (bait 2.0 ppm), 5/5; in assay [6] (bait 5.0 ppm), 5/5. The “Death up to 21 days, mice” value in assay [5] (bait 20.0 ppm) is 5/5. The ED50 in assay [1] (setting [8]) is 0.45 mg/kg.
As for `O=c1oc2ccccc2c(O)c1[C@@H]1C[C@H](c2ccc(-c3ccc(C(F)(F)F)cc3)cc2)Cc2ccccc21` (relative stereo) [Compound 25, 3[3-(4'-trifluoromethyl-4-yl)-1,2,3,4-tetrahydro-1-naphthyl]-4hydroxycoumarin], in assay [1] (setting [8]), the ED50 is 0.46 mg/kg.
As for `N#Cc1ccc(Oc2ccc(C3Cc4ccccc4C(c4c(O)c5ccccc5oc4=O)C3)cc2)cc1` (stereo not drawn) [Compound 10], the ED50 in assay [1] (setting [8]) turned out to be 0.41 mg/kg.
As for `O=c1oc2ccccc2c(O)c1C1CC(c2ccccc2-c2ccc(C(F)(F)F)cc2)Cc2ccccc21` (stereo not drawn) [Compound 27, reference compound], in assay [1] (setting [8]), the ED50 is greater than 10 mg/kg.
On to `O=c1oc2ccccc2c(O)c1C1CC(c2ccc(CCc3ccc(Cl)cc3)cc2)Cc2ccccc21` (stereo not drawn) [Compound 18], for which the ED50 in assay [1] (setting [8]) was found to be 0.27 mg/kg. The “anticoagulant activity” value in assay [1] is recorded as “activity greater than Brodifacoum”.
With `O=c1oc2ccccc2c(O)c1C1CC(c2ccc(Oc3ccc(C(F)(F)F)cc3)cc2)Cc2ccccc21` (stereo not drawn) [Compound 20], the ED50 in assay [1] (setting [8]) was 0.23 mg/kg. Besides, the “anticoagulant activity” value in assay [1] was “activity greater than Brodifacoum”.
Consider `O=c1oc2ccccc2c(O)c1C1CC(c2ccc(-c3ccc(Br)cc3)o2)Cc2ccccc21` (stereo not drawn) [Compound 8], for which, in assay [1] (setting [8]), the ED50 stood at 0.78 mg/kg.
Same read-out and setting: with `CCCCCCC1Cc2ccccc2C(c2c(O)c3ccccc3oc2=O)C1` (stereo not drawn) [Compound 30, reference compound] the figure was 14 mg/kg.
As for `O=c1oc2ccccc2c(O)c1C1CC(c2ccc(-c3ccc(Br)cc3)cc2)Cc2ccccc21` (stereo not drawn) [Brodifacoum], the “effectiveness against Warfarin-resistant rodents” value in assay [7] is reported as “effective against Warfarin-resistant rodents; also recorded: effectiveness against Warfarin-resistant rodents”. Besides, the “inhibiting ability, vitamin K reductase” value in assay [2] was “have this inhibiting ability”. Also, the “inhibiting ability, vitamin K 2,3-epoxide reductase” value in assay [3] was “have this inhibiting ability”. Also, the ED50 in assay [1] (setting [8]) is 0.28 mg/kg. Besides, the “anticoagulant activity” value in assay [1] is given as “particularly notable activity”.
In the case of `O=c1oc2ccccc2c(O)c1C1CC(Cc2ccc(Cl)cc2Cl)Cc2ccccc21` (stereo not drawn) [Compound 6], in assay [1] (setting [8]), the median effective dose (ED50) was 1.8 mg/kg.

These data come from patent publication US4520007A, “Anti-coagulants of the 4-hydroxycoumarin type and rodenticidal compositions (baits) comprising such anti-coagulants” (priority 1982, dated 1985).
